Structures can show the parent of a compound that is named as a salt.
target: T1, HCV polymerase (Hepatitis C virus genotype 1b, UniProt P26663); assay: biochemical; set-up: species or system HCV BK strain; details: not given
T1 construct: a region encoding NS5B (J Virol 1991 March, 65(3), 1105-13, 544 amino acids after deletion of 47 amino acids on the C-terminal); 6xHis (C); made in house; host or cells: Escherichia coli
In short: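 His-tagged NS5B (BK strain, 47-aa C-terminal deletion, E. coli-expressed) at 0.5 μg/ml copied 5 μg/ml run-off RNA bearing the HCV 3′ UTR with 2 μM UTP plus [3H]UTP, 50 μM ATP/GTP, in pH 7.5 Tris with 5 mM MgCl2, 25 °C, 90 min. TCA-precipitated RNA was counted and IC50 calculated.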

T1 sequence (P26663 2420-2963): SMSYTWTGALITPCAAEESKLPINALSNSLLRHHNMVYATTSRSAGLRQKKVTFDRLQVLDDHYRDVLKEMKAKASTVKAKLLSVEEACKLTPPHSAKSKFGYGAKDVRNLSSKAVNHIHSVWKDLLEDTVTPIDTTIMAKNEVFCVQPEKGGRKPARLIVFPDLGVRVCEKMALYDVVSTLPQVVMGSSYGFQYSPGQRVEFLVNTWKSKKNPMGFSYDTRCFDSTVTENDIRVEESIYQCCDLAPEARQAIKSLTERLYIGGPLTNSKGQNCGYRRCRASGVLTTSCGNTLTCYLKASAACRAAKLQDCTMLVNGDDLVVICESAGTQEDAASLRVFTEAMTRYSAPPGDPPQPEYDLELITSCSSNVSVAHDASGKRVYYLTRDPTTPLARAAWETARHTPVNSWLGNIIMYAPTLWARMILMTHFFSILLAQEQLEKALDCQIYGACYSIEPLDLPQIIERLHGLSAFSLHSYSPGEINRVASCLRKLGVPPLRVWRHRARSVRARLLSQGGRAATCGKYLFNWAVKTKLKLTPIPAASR

Q: With `O=C(O)c1ccc2c(C3CCCCC3)c3n(c2c1)CCN(CCN1CCOCC1)c1cc(F)ccc1-3` [Example 1-107, 13-cyclohexyl-3-fluoro-5-[2-(morpholin-4-yl)ethyl]-6,7-dihydro-5H-benzo[5,6][1,4]diazepino[7,1-a]indole-10-carboxylic acid dihydrochloride] as the compound, how does the IC50 read?
A: < 100 nM

Q: How did the IC50 turn out when `Cc1ccc2c(c1)N(CCN1CCCCC1)CCn1c-2c(C2CCCCC2)c2ccc(C(=O)O)cc21` [Example 1-108, 13-cyclohexyl-3-methyl-5-[2-(piperidin-1-yl)ethyl]-6,7-dihydro-5H-benzo[5,6][1,4]diazepino[7,1-a]indole-10-carboxylic acid dihydrochloride] was run?
A: < 100 nM

Q: Which IC50 does the source give for `O=C(O)c1ccc2c(C3CCCCC3)c3n(c2c1)CCN(CC(=O)N1CCOCC1)c1cc(F)ccc1-3` [Example 1-109, 13-cyclohexyl-3-fluoro-5-[2-(morpholin-4-yl)-2-oxoethyl]-6,7-dihydro-5H-benzo[5,6][1,4]diazepino[7,1-a]indole-10-carboxylic acid monohydrochloride] here?
A: < 100 nM

Q: `CCN1CCN(CCN2CCn3c(c(C4CCCCC4)c4ccc(C(=O)O)cc43)-c3ccc(C)cc32)CC1` [Example 1-110, 13-cyclohexyl-5-[2-(4-ethylpiperazin-1-yl)ethyl]-3-methyl-6,7-dihydro-5H-benzo[5,6][1,4]diazepino[7,1-a]indole-10-carboxylic acid trihydrochloride] was tested. Which IC50 did it give?
A: < 100 nM

Q: `O=C(O)c1ccc2c(C3CCCCC3)c3n(c2c1)CCN(CCCN1CCCCC1)c1ccccc1-3` [Example 1-111, 13-cyclohexyl-5-[3-(piperidin-1-yl)propyl]-6,7-dihydro-5H-benzo[5,6][1,4]diazepino[7,1-a]indole-10-carboxylic acid dihydrochloride] was tested. Which IC50 did it give?
A: < 100 nM

Q: How did the IC50 turn out when `O=C(O)c1ccc2c(C3CCCCC3)c3n(c2c1)CCN(CCCO)c1ccccc1-3` [Example 1-112, 13-cyclohexyl-5-(3-hydroxypropyl)-6,7-dihydro-5H-benzo[5,6][1,4]diazepino[7,1-a]indole-10-carboxylic acid monohydrochloride] was run?
A: < 100 nM

Q: `O=C(O)c1ccc2c(C3CCCCC3)c3n(c2c1)CCN(CCN1CCCC(O)C1)c1ccccc1-3` (stereo not drawn) [Example 1-113, 13-cyclohexyl-5-[2-(3-hydroxypiperidin-1-yl)ethyl]-6,7-dihydro-5H-benzo[5,6][1,4]diazepino[7,1-a]indole-10-carboxylic acid dihydrochloride] was tested. Which IC50 did it give?
A: < 100 nM

Q: With `O=C(O)c1ccc2c(C3CCCCC3)c3n(c2c1)CCN(CC(=O)N1CCCCC1)c1cc(F)ccc1-3` [Example 1-114, 13-cyclohexyl-3-fluoro-5-[2-oxo-2-(piperidin-1-yl)ethyl]-6,7-dihydro-5H-benzo[5,6][1,4]diazepino[7,1-a]indole-10-carboxylic acid monohydrochloride] as the compound, how does the IC50 read?
A: < 100 nM

Q: `Cc1ccc2c(c1)N(CC(=O)N1CCCCC1)CCn1c-2c(C2CCCCC2)c2ccc(C(=O)O)cc21` [Example 1-115, 13-cyclohexyl-3-methyl-5-[2-oxo-2-(piperidin-1-yl)ethyl]-6,7-dihydro-5H-benzo[5,6][1,4]diazepino[7,1-a]indole-10-carboxylic acid monohydrochloride] was tested. Which IC50 did it give?
A: < 100 nM

Q: Which IC50 does the source give for `O=C(O)c1ccc2c(C3CCCCC3)c3n(c2c1)CCN(CCN1CCCCC1)c1cc(F)ccc1-3` [Example 1-116, 13-cyclohexyl-3-fluoro-5-[2-(piperidin-1-yl)ethyl]-6,7-dihydro-5H-benzo[5,6][1,4]diazepino[7,1-a]indole-10-carboxylic acid dihydrochloride] here?
A: < 100 nM

Q: How did the IC50 turn out when `CCN1CCN(C(=O)CN2CCn3c(c(C4CCCCC4)c4ccc(C(=O)O)cc43)-c3ccc(C)cc32)CC1` [Example 1-117, 13-cyclohexyl-5-[2-(4-ethylpiperazin-1-yl)-2-oxoethyl]-3-methyl-6,7-dihydro-5H-benzo[5,6][1,4]diazepino[7,1-a]indole-10-carboxylic acid dihydrochloride] was run?
A: < 100 nM

Q: Which IC50 does the source give for `CC(=O)N1CCC(CN2CCn3c(c(C4CCCCC4)c4ccc(C(=O)O)cc43)-c3ccccc32)CC1` [Example 1-118, 5-(1-acetylpiperidin-4-ylmethyl)-13-cyclohexyl-6,7-dihydro-5H-benzo[5,6][1,4]diazepino[7,1-a]indole-10-carboxylic acid monohydrochloride] here?
A: < 100 nM

Q: `CC(C)N1CCC(CCN2CCn3c(c(C4CCCCC4)c4ccc(C(=O)O)cc43)-c3ccccc32)CC1` [Example 1-119, 13-cyclohexyl-5-[2-(1-isopropylpiperidin-4-yl)ethyl]-6,7-dihydro-5H-benzo[5,6][1,4]diazepino[7,1-a]indole-10-carboxylic acid dihydrochloride] was tested. Which IC50 did it give?
A: < 100 nM

Q: Which IC50 does the source give for `O=C(O)c1ccc2c(C3CCCCC3)c3n(c2c1)CCN(CC1CCOCC1)c1ccccc1-3` [Example 1-120, 13-cyclohexyl-5-(tetrahydropyran-4-ylmethyl)-6,7-dihydro-5H-benzo[5,6][1,4]diazepino[7,1-a]indole-10-carboxylic acid monohydrochloride] here?
A: < 100 nM

Q: For `CC1CCCN(C(=O)CN2CCn3c(c(C4CCCCC4)c4ccc(C(=O)O)cc43)-c3ccccc32)C1` (stereo not drawn) [Example 1-122, 13-cyclohexyl-5-[2-(3-methylpiperidin-1-yl)-2-oxoethyl]-6,7-dihydro-5H-benzo[5,6][1,4]diazepino[7,1-a]indole-10-carboxylic acid monohydrochloride], which IC50 is on record?
A: < 100 nM

Q: With `CCN1CCC(=CCN2CCn3c(c(C4CCCCC4)c4ccc(C(=O)O)cc43)-c3ccccc32)CC1` [Example 1-123, 13-cyclohexyl-5-[2-(1-ethylpiperidin-4-ylidene)ethyl]-6,7-dihydro-5H-benzo[5,6][1,4]diazepino[7,1-a]indole-10-carboxylic acid dihydrochloride] as the compound, how does the IC50 read?
A: < 100 nM

Q: For `CC(C)C1CCN(C(=O)CN2CCn3c(c(C4CCCCC4)c4ccc(C(=O)O)cc43)-c3ccccc32)CC1` [Example 1-124, 13-cyclohexyl-5-[2-(4-isopropylpiperidin-1-yl)-2-oxoethyl]-6,7-dihydro-5H-benzo[5,6][1,4]diazepino[7,1-a]indole-10-carboxylic acid monohydrochloride], which IC50 is on record?
A: < 100 nM

Q: `COC1CCCN(C(=O)CN2CCn3c(c(C4CCCCC4)c4ccc(C(=O)O)cc43)-c3ccccc32)C1` (stereo not drawn) [Example 1-125, 13-cyclohexyl-5-[2-(3-methoxypiperidin-1-yl)-2-oxoethyl]-6,7-dihydro-5H-benzo[5,6][1,4]diazepino[7,1-a]indole-10-carboxylic acid monohydrochloride] was tested. Which IC50 did it give?
A: < 100 nM

Q: `O=C(O)c1ccc2c(C3CCCCC3)c3n(c2c1)CCN(Cc1ccccn1)c1ccccc1-3` [Example 1-126, 13-cyclohexyl-5-(pyridin-2-ylmethyl)-6,7-dihydro-5H-benzo[5,6][1,4]diazepino[7,1-a]indole-10-carboxylic acid dihydrochloride] was tested. Which IC50 did it give?
A: < 100 nM

Q: With `CCCS(=O)(=O)NC(=O)c1ccc2c(C3CCCCC3)c3n(c2c1)CCN(CC(=O)N1CCN(CC)CC1)c1ccccc1-3` [Example 1-129, N-{13-cyclohexyl-5-[2-(4-ethylpiperazin-1-yl)-2-oxoethyl]-6,7-dihydro-5H-benzo[5,6][1,4]diazepino[7,1-a]indole-10-carbonyl}propane-1-sulfonamide dihydrochloride] as the compound, how does the IC50 read?
A: < 100 nM

Q: How did the IC50 turn out when `CCN1CCC(CN2CCn3c(c(C4CCCCC4)c4ccc(C(=O)O)cc43)-c3ccccc32)CC1` [Example 1-130, 13-cyclohexyl-5-(1-ethylpiperidin-4-ylmethyl)-6,7-dihydro-5H-benzo[5,6][1,4]diazepino[7,1-a]indole-10-carboxylic acid] was run?
A: < 100 nM

Q: Which IC50 does the source give for `O=C(O)c1ccc2c(C3CCCCC3)c3n(c2c1)CCN(CC(=O)N1CCCCCCC1)c1ccccc1-3` [Example 1-131, 5-[2-(azocan-1-yl)-2-oxoethyl]-13-cyclohexyl-6,7-dihydro-5H-benzo[5,6][1,4]diazepino[7,1-a]indole-10-carboxylic acid] here?
A: < 100 nM

Q: Which IC50 does the source give for `O=C(O)c1ccc2c(C3CCCCC3)c3n(c2c1)CCN(CC(=O)N1CCCCCCCC1)c1ccccc1-3` [Example 1-132, 5-[2-(azonan-1-yl)-2-oxoethyl]-13-cyclohexyl-6,7-dihydro-5H-benzo[5,6][1,4]diazepino[7,1-a]indole-10-carboxylic acid] here?
A: < 100 nM

Q: Which IC50 does the source give for `O=C(O)c1ccc2c(C3CCCCC3)c3n(c2c1)CCN(Cc1ccncc1)c1ccccc1-3` [Example 1-134, 13-cyclohexyl-5-(pyridin-4-ylmethyl)-6,7-dihydro-5H-benzo[5,6][1,4]diazepino[7,1-a]indole-10-carboxylic acid dihydrochloride] here?
A: < 100 nM

Q: With `O=C(O)c1ccc2c(C3CCCCC3)c3n(c2c1)CCN(Cc1cccnc1)c1ccccc1-3` [Example 1-135, 13-cyclohexyl-5-(pyridin-3-ylmethyl)-6,7-dihydro-5H-benzo[5,6][1,4]diazepino[7,1-a]indole-10-carboxylic acid dihydrochloride] as the compound, how does the IC50 read?
A: < 100 nM

Q: Which IC50 does the source give for `O=C(O)c1ccc2c(C3CCCCC3)c3n(c2c1)CCN(CC(=O)N1CC=CCC1)c1ccccc1-3` [Example 1-136, 13-cyclohexyl-5-[2-(3,6-dihydro-2H-pyridin-1-yl)-2-oxoethyl]-6,7-dihydro-5H-benzo[5,6][1,4]diazepino[7,1-a]indole-10-carboxylic acid] here?
A: < 100 nM

same assay, conditions: read-out: HCV polymerase inhibitory activity IC50; 25° C., 90 min; [5,6-3H]UTP incorporation into RNA

Q: With `CCN1CCC(CN2CCn3c(c(C4CCCCC4)c4ccc(C(=O)O)cc43)-c3ccccc32)CC1` [Example 1-133, 13-cyclohexyl-5-(1-ethylpiperidin-4-ylmethyl)-6,7-dihydro-5H-benzo[5,6][1,4]diazepino[7,1-a]indole-10-carboxylic acid dihydrochloride] as the compound, how does the IC50 read?
A: < 100 nM
